From patent US20150329558A1, “FUSED HETEROCYCLIC COMPOUNDS AS ION CHANNEL MODULATORS” (Gilead Sciences, Inc., priority 2011, published 2015)

Target: wild-type human cardiac sodium channel, hNav1.5 (late INa) (Homo sapiens, UniProt Q14524)
Assay: Late INa screening assay (QPatch whole cell patch clamp)
Type: cell-based
Conditions: percent block of late INa, compound at 1 μM, 10 μM Tefluthrin, HEK293 hNav1.5; read-out: Late INa 1 μM
Method: The late sodium current (Late INa) and peak sodium current (Peak INa) assays are performed on an automated electrophysiology platform, QPatch 16× (Sophion Bioscience, Copenhagen, Denmark), which uses the whole cell patch clamp technique to measure currents through the cell membrane of up to 16 cells at a time. The assay uses an HEK293 (human embryonic kidney) cell line heterologously expressing the wild-type human cardiac sodium channel, hNav1.5, purchased from Millipore (Billerica, Mass.). No beta subunits were coexpressed with the Na channel alpha subunit. Cells are maintained with standard tissue culture procedures and stable channel expression is maintained with 400 μg/mL Geneticin in the culture medium. […] Experiments are carried out at 23-25° C. For both the Late INa and Peak INa assays, series resistance compensation is set to 100% and series resistance and whole-cell compensation are performed automatically. Currents are digitized at 25 kHz and low-pass filtered at 12 kHz and 10 kHz for the late and peak INa assays, respectively. Currents through open sodium channels are automatically recorded and stored in the Sophion Bioscience Oracle database (Sophion Bioscience, Copehagen, Denmark). Analysis is performed using QPatch Assay and database software and data are compiled in Excel. Compound stocks are routinely made by the Gilead Sample Bank in plastic vials to 10 mM in dimethyl sulfoxide (DMSO). In some cases, when compounds are not soluble in DMSO, they are made in 100% ethanol. Stocks are sonicated as necessary. […] The intracellular solution used to perfuse the inside of the cells for both the Late INa and Peak INa assays contains: 120 mM CsF, 20 mM CsCl, 5 mM EGTA, 5 mM HEPES and pH adjusted to 7.4 with CsOH. Compounds are diluted in extracellular solution to 1 μM in glass vials and then transferred to glass well plates before robotic addition to the cells. […] For the Late INa assay, sodium channels are activated every 10 seconds (0.1 Hz) by depolarizing the cell membrane to −20 mV for 250 milliseconds (ms) from a holding potential of −120 mV. In response to a −20 mV voltage step, typical hNav1.5 sodium currents activate rapidly to a peak negative current and then inactivate nearly completely within 3-4 ms. All compounds were tested to determine their activity in blocking the late sodium current. Late INa was generated by adding 10 μM Tefluthrin (pyrethroid) to the extracellular solution while recording Na currents. To confirm the block of late INa observed using the automated screening method, a second late INa enhancer (ATX-II) and the manual patch clamp method were used. ATX-II and tefluthrin occupy distinct, non-overlapping binding sites and modify Na^+ channel function differently to increase late INa. […] For the purposes of the screening, late INa is defined as the mean current between 225 ms and 250 ms after stepping to −20 mV to activate Na channels. […] Results are reported as percent block of late INa.

Chain of wild-type human cardiac sodium channel, hNav1.5 (late INa) (Q14524 whole entry): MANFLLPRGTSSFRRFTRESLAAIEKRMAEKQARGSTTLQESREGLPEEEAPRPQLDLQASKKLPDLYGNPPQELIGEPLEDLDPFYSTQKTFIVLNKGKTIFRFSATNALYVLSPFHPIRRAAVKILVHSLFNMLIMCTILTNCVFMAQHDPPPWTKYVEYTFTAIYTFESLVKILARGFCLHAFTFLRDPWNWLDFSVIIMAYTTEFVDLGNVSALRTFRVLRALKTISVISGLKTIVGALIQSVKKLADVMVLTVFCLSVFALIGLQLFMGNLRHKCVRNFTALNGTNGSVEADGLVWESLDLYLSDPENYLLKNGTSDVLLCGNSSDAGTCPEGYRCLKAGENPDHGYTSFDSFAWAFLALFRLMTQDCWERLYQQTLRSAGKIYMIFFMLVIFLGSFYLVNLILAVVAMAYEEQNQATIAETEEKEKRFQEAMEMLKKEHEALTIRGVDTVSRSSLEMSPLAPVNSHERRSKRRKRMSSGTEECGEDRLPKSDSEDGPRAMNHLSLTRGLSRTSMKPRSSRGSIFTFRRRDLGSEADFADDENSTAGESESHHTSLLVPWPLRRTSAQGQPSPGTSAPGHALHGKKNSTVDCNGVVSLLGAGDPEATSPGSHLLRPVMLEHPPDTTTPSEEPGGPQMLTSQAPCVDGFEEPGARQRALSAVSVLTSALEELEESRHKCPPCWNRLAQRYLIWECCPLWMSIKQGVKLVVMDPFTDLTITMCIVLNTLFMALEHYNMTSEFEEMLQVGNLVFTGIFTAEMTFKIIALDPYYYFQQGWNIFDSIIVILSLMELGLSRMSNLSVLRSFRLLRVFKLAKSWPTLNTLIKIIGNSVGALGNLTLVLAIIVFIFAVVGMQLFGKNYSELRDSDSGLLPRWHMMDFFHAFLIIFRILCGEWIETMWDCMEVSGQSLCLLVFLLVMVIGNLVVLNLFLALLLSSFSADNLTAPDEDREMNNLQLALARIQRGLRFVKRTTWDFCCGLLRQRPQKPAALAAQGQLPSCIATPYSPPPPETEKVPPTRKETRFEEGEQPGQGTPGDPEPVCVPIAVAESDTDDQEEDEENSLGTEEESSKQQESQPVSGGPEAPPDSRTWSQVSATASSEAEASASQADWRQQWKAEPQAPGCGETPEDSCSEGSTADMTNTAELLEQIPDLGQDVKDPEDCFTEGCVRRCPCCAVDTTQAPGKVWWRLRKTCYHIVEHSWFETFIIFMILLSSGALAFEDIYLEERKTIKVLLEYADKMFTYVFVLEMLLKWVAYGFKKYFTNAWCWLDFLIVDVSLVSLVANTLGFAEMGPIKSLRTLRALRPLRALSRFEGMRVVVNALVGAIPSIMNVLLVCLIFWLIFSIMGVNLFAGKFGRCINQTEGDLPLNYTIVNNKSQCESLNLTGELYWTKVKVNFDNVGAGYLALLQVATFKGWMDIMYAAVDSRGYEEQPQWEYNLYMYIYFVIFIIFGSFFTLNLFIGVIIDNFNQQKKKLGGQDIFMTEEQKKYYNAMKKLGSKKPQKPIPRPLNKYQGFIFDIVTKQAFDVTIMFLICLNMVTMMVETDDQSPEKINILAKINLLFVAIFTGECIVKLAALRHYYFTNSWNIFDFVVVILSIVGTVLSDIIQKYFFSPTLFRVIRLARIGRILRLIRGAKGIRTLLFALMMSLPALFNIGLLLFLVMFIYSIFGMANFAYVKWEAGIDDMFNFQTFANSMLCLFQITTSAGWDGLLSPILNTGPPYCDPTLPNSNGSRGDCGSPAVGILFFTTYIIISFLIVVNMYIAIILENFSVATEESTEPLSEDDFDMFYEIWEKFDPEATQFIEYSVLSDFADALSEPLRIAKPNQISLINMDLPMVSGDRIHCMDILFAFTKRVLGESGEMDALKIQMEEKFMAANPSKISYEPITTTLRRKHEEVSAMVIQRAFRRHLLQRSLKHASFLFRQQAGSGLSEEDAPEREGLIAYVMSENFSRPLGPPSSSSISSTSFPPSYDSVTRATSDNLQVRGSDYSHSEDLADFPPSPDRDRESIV

Compared with `O=C(N1CCc2ccc(-c3ccc(C(F)(F)F)cc3)cc2C1)N1CCC(O)C1` (centres unmarked) [IX-91, (3-hydroxypyrrolidin-1-yl)(7-(4-(trifluoromethyl)phenyl)-3,4-dihydroisoquinolin-2(1H)-yl)methanoneo], `O=C(N1CCc2ccc(-c3ccc(C(F)(F)F)cc3)cc2C1)N1CCC(F)C1` (centres unmarked) [IX-94, (3-fluoropyrrolidin-1-yl)(7-(4-(trifluoromethyl)phenyl)-3,4-dihydroisoquinolin-2(1H)-yl)methanone] is higher in inhibition at 1 µM: 16% for the first, 33% for the second.

First: CC(C)(C)OC(=O)N1CCC[C@@H]1C(=O)N1CCc2ccc(-c3ccc(C(F)(F)F)cc3)cc2C1 [IX-114, (R)-tert-butyl 2-(7-(4-(trifluoromethyl)phenyl)-1,2,3,4-tetrahydroisoquinoline-2-carbonyl)pyrrolidine-1-carboxylate]
Second: O=C(N1CCc2ccc(-c3ccc(C(F)(F)F)cc3)cc2C1)N1CCC[C@H]1CO [IX-102, (S)-(2-(hydroxymethyl)pyrrolidin-1-yl)(7-(4-(trifluoromethyl)phenyl)-3,4-dihydroisoquinolin-2(1H)-yl)methanone]
The inhibition at 1 µM of the first is lower: 20% for the first, 27% for the second.

Compared with `Nc1n[nH]c(C(=O)N2CCc3ccc(-c4ccc(C(F)(F)F)cc4)cc3C2)n1` [IX-111, (3-amino-1H-1,2,4-triazol-5-yl)(7-(4-(trifluoromethyl)phenyl)-3,4-dihydroisoquinolin-2(1H)-yl)methanone], `O=C(c1ccn[nH]1)N1CCc2ccc(-c3ccc(C(F)(F)F)cc3)cc2C1` [IX-36, (1H-pyrazol-5-yl)(7-(4-(trifluoromethyl)phenyl)-3,4-dihydroisoquinolin-2(1H)-yl)methanone] is lower in inhibition at 1 µM: 27% for the first, 20% for the second.

Compared with `O=C1c2cc(-c3ccc(OC(F)(F)F)cc3)ccc2OCN1Cc1ccccc1` [VIII-23, 3-benzyl-6-(4-(trifluoromethoxy)phenyl)-2H-benzo[e][1,3]oxazin-4(3H)-one], `O=C1c2cc(-c3ccc(C(F)(F)F)cc3)ccc2OCN1Cc1ccccc1` [VIII-21, 3-benzyl-6-(4-(trifluoromethyl)phenyl)-2H-benzo[e][1,3]oxazin-4(3H)-one] is higher in inhibition at 1 µM: 48% for the first, 58% for the second.

Going from `O=C1c2cc(-c3ccc(C(F)(F)F)cc3)ccc2OCN1Cc1ncccn1` [VIII-19, 3-(pyrimidin-2-ylmethyl)-6-(4-(trifluoromethyl)phenyl)-2H-benzo[e][1,3]oxazin-4(3H)-one] to `O=C(Cc1ncccn1)N1CCc2ccc(-c3ccc(C(F)(F)F)cc3)cc2C1` [IX-30, 2-(pyrimidin-2-yl)-1-(7-(4-(trifluoromethyl)phenyl)-3,4-dihydroisoquinolin-2(1H)-yl)ethanone], the inhibition at 1 µM falls from 61% to 20%.

Going from `Cc1nonc1Cn1ncc2ccc(-c3ccc(OC(F)(F)F)cc3)cc2c1=O` [III-11, 2-((4-methyl-1,2,5-oxadiazol-3-yl)methyl)-7-(4-(trifluoromethoxy)phenyl)phthalazin-1 (2H)-one] to `N#Cc1cccc(Cn2ncc3ccc(-c4ccc(OC(F)(F)F)cc4)cc3c2=O)n1` [III-12, 6-((1-oxo-7-(4-(trifluoromethoxy)phenyl)phthalazin-2(1H)-yl)methyl)picolinonitrile], the inhibition at 1 µM falls from 30% to 21%.

`O=c1c2cc(-c3ccc(OC(F)(F)F)cc3)ccc2nnn1Cc1cc(-c2ccccc2)no1` [II-10, 3-((3-phenylisoxazol-5-yl)methyl)-6-(4-(trifluoromethoxy)phenyl)benzo[d][1,2,3]triazin-4(3H)-one] and `O=c1c2cc(-c3ccc(OC(F)(F)F)cc3)ccc2nnn1Cc1nc(Cc2ccccc2)no1` [II-12, 3-((3-benzyl-1,2,4-oxadiazol-5-yl)methyl)-6-(4-(trifluoromethoxy)phenyl)benzo[d][1,2,3]triazin-4(3H)-one] are the same in inhibition at 1 µM: 21% for the first, 21% for the second.

Going from `CC1CCN(C(=O)N2CCc3ccc(-c4ccc(C(F)(F)F)cc4)cc3C2)C1` (centres unmarked) [IX-90, (3-methylpyrrolidin-1-yl)(7-(4-(trifluoromethyl)phenyl)-3,4-dihydroisoquinolin-2(1H)-yl)methanone] to `O=C(N1CCC1)N1CCc2ccc(-c3ccc(C(F)(F)F)cc3)cc2C1` [IX-88, azetidin-1-yl(7-(4-(trifluoromethyl)phenyl)-3,4-dihydroisoquinolin-2(1H)-yl)methanone], the inhibition at 1 µM falls from 27% to 25%.

Going from `O=C(NC1CCCC1)N1CCc2ccc(-c3ccc(C(F)(F)F)cc3)cc2C1` [IX-77, N-cyclopentyl-7-(4-(trifluoromethyl)phenyl)-3,4-dihydroisoquinoline-2(1H)-carboxamide] to `O=C(N1CCc2ccc(-c3ccc(C(F)(F)F)cc3)cc2C1)N1CC(F)C1` [IX-95, (3-fluoroazetidin-1-yl)(7-(4-(trifluoromethyl)phenyl)-3,4-dihydroisoquinolin-2(1H)-yl)methanone], the inhibition at 1 µM rises from 22% to 25%.

First: O=c1c2cc(-c3ccc(OC(F)(F)F)cc3)ccc2cnn1Cc1ccccc1 [III-6, 2-benzyl-7-(4-(trifluoromethoxy)phenyl)phthalazin-1(2H)-one]
Second: Cn1c(CCn2ncc3ccc(-c4ccc(OC(F)(F)F)cc4)cc3c2=O)nc2ccccc21 [III-25, 2-(2-(1-methyl-1H-benzo[d]imidazol-2-yl)ethyl)-7-(4-(trifluoromethoxy)phenyl)phthalazin-1 (2H)-one]
The inhibition at 1 µM of the first is higher: 18% for the first, 16% for the second.

First: O=C(c1ccncn1)N1CCc2ccc(-c3ccc(C(F)(F)F)cc3)cc2C1 [IX-32, pyrimidin-4-yl(7-(4-(trifluoromethyl)phenyl)-3,4-dihydroisoquinolin-2(1H)-yl)methanone]
Second: O=C(c1cncnc1)N1CCc2ccc(-c3ccc(C(F)(F)F)cc3)cc2C1 [IX-33, pyrimidin-5-yl(7-(4-(trifluoromethyl)phenyl)-3,4-dihydroisoquinolin-2(1H)-yl)methanone]
The inhibition at 1 µM of the first is higher: 29% for the first, 21% for the second.

First: O=C(NCc1ccccc1)N1CCc2ccc(-c3ccc(C(F)(F)F)cc3)cc2C1 [IX-41, N-benzyl-7-(4-(trifluoromethyl)phenyl)-3,4-dihydroisoquinoline-2(1H)-carboxamide]
Second: O=C(NCc1ncccn1)N1CCc2ccc(-c3ccc(OC(F)(F)F)cc3)cc2C1 [IX-123, N-(pyrimidin-2-ylmethyl)-7-(4-(trifluoromethoxy)phenyl)-3,4-dihydroisoquinoline-2(1H)-carboxamide]
The inhibition at 1 µM of the first is higher: 27% for the first, 17% for the second.

Compared with `O=C1c2cc(C#Cc3ccc(OC(F)(F)F)cc3)ccc2CCN1Cc1ncccn1` [IX-5], `O=c1c2cc(-c3ccc(OC(F)(F)F)cc3)ccc2nnn1OCc1ncccn1` [II-56, 3-(pyrimidin-2-ylmethoxy)-6-(4-(trifluoromethoxy)phenyl)benzo[d][1,2,3]triazin-4(3H)-one] is higher in inhibition at 1 µM: 20% for the first, 22% for the second.

`O=C(Cn1nnc2ccc(-c3ccc(Oc4ccc(Cl)cc4)cc3)cc2c1=O)N1CCN(c2ncccn2)CC1` [II-65, 6-(4-(4-chlorophenoxyl)phenyl)-3-(2-oxo-2-(4-(pyrimidin-2-yl)piperazin-1-yl)ethyl)benzo[d][1,2,3]triazin-4(3H)-one] and `O=c1c2cc(-c3ccc(OC(F)(F)F)cc3)ccc2nnn1Cn1nc2ccccc2n1` [II-28, 3-((2H-benzo[d][1,2,3]triazol-2-yl)methyl)-6-(4-(trifluoromethoxy)phenyl)benzo[d][1,2,3]triazin-4(3H)-one] are the same in inhibition at 1 µM: 19% for the first, 19% for the second.

First: CC(C)c1nccc(C(=O)N2CCc3ccc(-c4ccc(C(F)(F)F)cc4)cc3C2)n1 [IX-31, (2-isopropylpyrimidin-4-yl)(7-(4-(trifluoromethyl)phenyl)-3,4-dihydroisoquinolin-2(1H)-yl)methanone]
Second: CC(C)n1cc(C(=O)N2CCc3ccc(-c4ccc(C(F)(F)F)cc4)cc3C2)cn1 [IX-27, (1-isopropyl-1H-pyrazol-4-yl)(7-(4-(trifluoromethyl)phenyl)-3,4-dihydroisoquinolin-2(1H)-yl)methanone]
The inhibition at 1 µM of the first is higher: 25% for the first, 18% for the second.

First: O=c1c2cc(-c3ccc(OC(F)(F)F)cc3)ccc2nnn1CC1(Cn2ccnc2)CC1 [II-58, 3-((1-((1H-imidazol-1-yl)methyl)cyclopropyl)methyl)-6-(4-(trifluoromethoxy)phenyl)benzo[d][1,2,3]triazin-4(3H)-one]
Second: Cc1nc(Cn2nnc3ccc(-c4ccc(OC(F)(F)F)cc4)cc3c2=O)oc1C [II-23, 3-((4,5-dimethyloxazol-2-yl)methyl)-6-(4-(trifluoromethoxy)phenyl)benzo[d][1,2,3]triazin-4(3H)-one]
The inhibition at 1 µM of the first is higher: 25% for the first, 23% for the second.
